For data set [1], the system named is C57BL/6 mice fed with D12492. In words: Diet-induced obesity in C57BL/6 mice fed high fat diet D12492, oral OT. Format: in vivo. The protocol: D12492 is a very high fat containing diet (with 60 kcal % fat), and has been widely used to induce obesity in rodents.
A dose of 10-20 mg/kg/day of OT was administered orally to C57BL/6 mice fed with D12492. […] In contrast, the control mice developed obesity.
4 groups of C57BL/6 mice (5 mice each group) were used to test the dosage dependence of oxythiamine on weight control. The negative control was fed a regular diet, and positive group was fed a high fat diet only. Test groups were fed high fat diet and each orally administered with OT at a concentration of 2 mg/kg/day or 10 mg/kg/day.

The subject of data set [2] is normal as well as fatty mice. In words: Higher dosage of OT: weight loss in normal and fatty mice. The format is in vivo. From the text: This is consistent with the result obtained from the published result of TKT haplo-insufficiency mice.
The test system of data set [3] is liver, heart and kidney of mice hosting Ehrlich's tumor. To be noted: 400 mg/kg/day of OT; cited from earlier work.
In a further data set the test system is tumors in animals. The following applies: 100-400 mg/kg of OT; cited from earlier work.

SMILES strings stand for the structures.

Take `Cc1ncc(C[n+]2csc(CCO)c2C)c(=O)[nH]1` [OT, Oxythiamine]: the “development of diet-induced obesity” value in data set [1] (10-20 mg/kg/day orally, C57BL/6 mice fed D12492, control mice developed obesity) was “Diet-induced obesity was not developed”. The “pathological studies of OT treated mice” value in data set [1] (FIG. 1 study, high fat diet plus OT) is “near normal”. In addition, the “progression of obesity development” value in data set [1] (OT as low as 2 mg/kg/day) is “reduce the progression of obesity development significantly”. The “dosage dependence of prevention of weight gain” value in data set [1] (mice fed D12492, test groups 2 or 10 mg/kg/day orally) is “dosage dependent effects on preventing weight gain”. The “growth rate compared to same age mice fed a standard diet” value in data set [1] (mice fed D12492 plus OT) is “normal growth rate”. In addition, the “effect on body weight” value in data set [2] (180 mg/kg/day, normal as well as fatty mice) is given as “strong effect of weight loss”. In addition, in data set [2] (OT fed mice), the fat mass entry was “Preferential reduction of fat mass”. Moreover, the “histotoxicity (signs of toxicity in liver, heart and kidney vs controls)” value in data set [3] is listed as “No signs of toxicity were observed”. The “treatment of tumors in animals” value with tumors in animals was “successfully used to treat tumors”.
